Experimental data reported in ChEMBL document CHEMBL1201862, “PubChem BioAssay data set” (2004).
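Compound exposure: 48 hours, 5 concentrations, 96-well plates. The concentration for 50% growth inhibition is given as GI50.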 Calls of active or inactive are those of the source. Cut-off read from the data, not from the text of the source: active = GI50 up to about 1.1 µM and inactive = higher.

How the values were obtained:
Assay in all cases: DTP human tumour cell line panel, 48 h
HT-29 = test system: HT-29
HOP-92 = test system: HOP-92
TK-10 = test system: TK-10
EKVX = test system: EKVX
PC-3 = test system: PC-3
RXF 393 = test system: RXF 393
OVCAR-5 = test system: OVCAR-5
RPMI-8226 = test system: RPMI-8226
NCI/ADR-RES = test system: NCI/ADR-RES
MCF7 = test system: MCF7
HCT-15 = test system: HCT-15
T47D = test system: T47D
SR = test system: SR
SK-OV-3 = test system: SK-OV-3
CCRF-CEM = test system: CCRF-CEM
SN12C = test system: SN12C
OVCAR-3 = test system: OVCAR-3
HL-60 = test system: HL-60
NCI-H522 = test system: NCI-H522
A498 = test system: A498

Row | SMILES | GI50 (HT-29) | GI50 (HOP-92) | GI50 (TK-10) | GI50 (EKVX) | GI50 (PC-3) | GI50 (RXF 393) | GI50 (OVCAR-5) | GI50 (RPMI-8226) | GI50 (NCI/ADR-RES) | GI50 (MCF7) | GI50 (HCT-15) | GI50 (T47D) | GI50 (SR) | GI50 (SK-OV-3) | GI50 (CCRF-CEM) | GI50 (SN12C) | GI50 (OVCAR-3) | GI50 (HL-60) | GI50 (NCI-H522) | GI50 (A498)
1 | CCOC(=O)COc1cc(-c2ccccc2F)nc2cc3c(cc12)OCO3 | > 100 µM (inactive) | 19.7 µM (inactive) | > 100 µM (inactive) | 85.5 µM (inactive) | > 100 µM (inactive) | > 100 µM (inactive) | > 100 µM (inactive) | 42 µM (inactive) | > 100 µM (inactive) | > 100 µM (inactive) | 39.9 µM | 79.8 µM (inactive) | > 10 µM (inactive) | > 100 µM (inactive) | 23.2 µM (inactive) | > 100 µM (inactive) | > 10 µM (inactive) | – | – | –
2 | Oc1ccc(/C=N/N=c2\[nH][nH]/c(=N\N=C\c3ccc(O)cc3O)c3ccccc23)c(O)c1 | 0.331 µM (active) | – | – | 0.211 µM (active) | 0.375 µM (active) | – | 0.422 µM (active) | 0.3 µM (active) | 0.427 µM (active) | 0.274 µM (active) | 0.244 µM | 0.271 µM (active) | 0.136 µM (active) | 0.428 µM (active) | 0.345 µM (active) | 0.308 µM (active) | 0.185 µM (active) | 0.271 µM (active) | – | –
3 | O=c1oc2ccc(Cl)cc2cc1-c1cn2cc(Cl)ccc2n1 | > 24.3 µM (inactive) | > 100 µM (inactive) | > 100 µM (inactive) | > 37.3 µM (inactive) | > 100 µM (inactive) | > 100 µM (inactive) | > 100 µM (inactive) | > 100 µM (inactive) | 11.4 µM (inactive) | 1.64 µM (inactive) | 2.36 µM | > 100 µM (inactive) | 0.473 µM (active) | > 100 µM (inactive) | > 28.8 µM (inactive) | > 89.1 µM (inactive) | 5.3 µM (inactive) | 3.4 µM (inactive) | 0.74 µM (active) | –
4 | CC1(C)CC(=O)c2c(nc3ccc4ccccc4c3c2-c2ccc(NC(=O)CCCC(=O)Nc3ccc(-c4c5c(nc6ccc7ccccc7c46)CC(C)(C)CC5=O)cc3)cc2)C1 | > 100 µM (inactive) | > 100 µM (inactive) | > 100 µM (inactive) | > 100 µM (inactive) | > 100 µM (inactive) | – | > 100 µM (inactive) | > 100 µM (inactive) | > 100 µM (inactive) | > 100 µM (inactive) | > 100 µM | > 100 µM (inactive) | > 100 µM (inactive) | > 100 µM (inactive) | > 100 µM (inactive) | > 100 µM (inactive) | > 100 µM (inactive) | 5.94 µM (inactive) | – | > 100 µM (inactive)
5 | CC1SC(=O)SC1C (stereo not given) | – | – | > 100 µM (inactive) | > 100 µM (inactive) | > 100 µM (inactive) | – | > 100 µM (inactive) | > 100 µM (inactive) | > 100 µM (inactive) | > 100 µM (inactive) | > 100 µM | > 100 µM (inactive) | > 100 µM (inactive) | > 100 µM (inactive) | > 100 µM (inactive) | > 100 µM (inactive) | – | > 100 µM (inactive) | > 100 µM (inactive) | –
6 | O=C1NC2(CCNCC2)Oc2ccccc21 | > 100 µM (inactive) | > 100 µM (inactive) | > 100 µM (inactive) | > 100 µM (inactive) | > 100 µM (inactive) | 64.1 µM (inactive) | > 100 µM (inactive) | > 100 µM (inactive) | > 100 µM (inactive) | > 100 µM (inactive) | > 100 µM | > 100 µM (inactive) | > 100 µM (inactive) | > 100 µM (inactive) | > 100 µM (inactive) | > 100 µM (inactive) | > 100 µM (inactive) | > 100 µM (inactive) | > 100 µM (inactive) | –
7 | CC(=O)Nc1ccccc1S(=O)(=O)c1c(-c2c(C)c(Cl)c(C)c(Cl)c2C)noc1C | 55.2 µM (inactive) | – | 23.3 µM (inactive) | 48.9 µM (inactive) | 35.1 µM (inactive) | 28.8 µM (inactive) | > 100 µM (inactive) | 29.2 µM (inactive) | 41.2 µM (inactive) | 35.1 µM (inactive) | > 100 µM | 68.1 µM (inactive) | 16.1 µM (inactive) | 31.7 µM (inactive) | 27.8 µM (inactive) | 30.3 µM (inactive) | 57.8 µM (inactive) | – | 49.5 µM (inactive) | 57 µM (inactive)
8 | CC(Cc1ccc(Cl)cc1Cl)NO (stereo not given) | > 100 µM (inactive) | – | > 100 µM (inactive) | 58.2 µM (inactive) | > 100 µM (inactive) | > 100 µM (inactive) | > 100 µM (inactive) | 78 µM (inactive) | > 100 µM (inactive) | > 100 µM (inactive) | > 100 µM | > 100 µM (inactive) | > 100 µM (inactive) | > 100 µM (inactive) | > 100 µM (inactive) | 92.7 µM (inactive) | > 100 µM (inactive) | – | 66.5 µM (inactive) | > 100 µM (inactive)
9 | CCOC(=O)NNC(=O)NCc1cccc(CNC(=O)NNC(=O)OCC)c1 | > 100 µM (inactive) | – | > 100 µM (inactive) | > 100 µM (inactive) | > 100 µM (inactive) | > 100 µM (inactive) | > 100 µM (inactive) | > 100 µM (inactive) | > 100 µM (inactive) | > 100 µM (inactive) | > 100 µM | > 100 µM (inactive) | > 100 µM (inactive) | > 100 µM (inactive) | > 100 µM (inactive) | > 100 µM (inactive) | > 100 µM (inactive) | > 100 µM (inactive) | > 100 µM (inactive) | > 100 µM (inactive)
10 | CC(C)C(O)(C(=O)OCN1C(=O)C2C3C=CC(C2C1=O)C1C2C(=O)N(COC(=O)C(O)(C(C)C)C(C)O)C(=O)C2C31)C(C)O (stereo not given) | > 100 µM (inactive) | – | > 100 µM (inactive) | > 100 µM (inactive) | > 100 µM (inactive) | > 100 µM (inactive) | > 100 µM (inactive) | > 100 µM (inactive) | > 100 µM (inactive) | > 100 µM (inactive) | > 100 µM | > 100 µM (inactive) | > 100 µM (inactive) | > 100 µM (inactive) | > 100 µM (inactive) | > 100 µM (inactive) | > 100 µM (inactive) | > 100 µM (inactive) | > 100 µM (inactive) | 39.7 µM (inactive)
11 | COc1ccc(OC)c2c(C(C)=O)cccc12 | – | – | > 100 µM (inactive) | > 100 µM (inactive) | > 100 µM (inactive) | > 100 µM (inactive) | > 100 µM (inactive) | > 100 µM (inactive) | > 100 µM (inactive) | > 100 µM (inactive) | > 100 µM | > 100 µM (inactive) | > 100 µM (inactive) | > 100 µM (inactive) | > 100 µM (inactive) | > 100 µM (inactive) | > 100 µM (inactive) | 85.1 µM (inactive) | > 100 µM (inactive) | > 100 µM (inactive)
12 | CC1CN=C(N(C)C(=O)Nc2ccc(Cl)cc2)S1 (stereo not given) | 31.3 µM (inactive) | 29.9 µM (inactive) | 29.1 µM (inactive) | 21.4 µM (inactive) | 15.7 µM (inactive) | – | 4.47 µM (inactive) | > 10 µM (inactive) | 1.9 µM (inactive) | 32.6 µM (inactive) | 0.841 µM | 4.19 µM (inactive) | 12.3 µM (inactive) | 46 µM (inactive) | > 10 µM (inactive) | 15.2 µM (inactive) | 27.2 µM (inactive) | 15.7 µM (inactive) | – | 40.1 µM (inactive)
13 | COc1ccc(-c2c(C#N)c(N)n(C3OCC(O)C(O)C3O)c(=S)c2C#N)cc1 (stereo not given) | > 100 µM (inactive) | – | > 100 µM (inactive) | – | > 100 µM (inactive) | > 100 µM (inactive) | > 100 µM (inactive) | > 100 µM (inactive) | > 100 µM (inactive) | > 100 µM (inactive) | > 100 µM | 95.9 µM (inactive) | > 100 µM (inactive) | > 100 µM (inactive) | > 100 µM (inactive) | > 100 µM (inactive) | > 100 µM (inactive) | > 100 µM (inactive) | > 100 µM (inactive) | > 100 µM (inactive)
14 | COP(=O)(Cc1ccccc1)Cc1ccccc1 | > 100 µM (inactive) | – | > 100 µM (inactive) | > 100 µM (inactive) | > 100 µM (inactive) | 86.1 µM (inactive) | > 100 µM (inactive) | > 100 µM (inactive) | > 100 µM (inactive) | > 100 µM (inactive) | > 100 µM | > 100 µM (inactive) | > 100 µM (inactive) | > 100 µM (inactive) | > 100 µM (inactive) | > 100 µM (inactive) | – | > 100 µM (inactive) | > 100 µM (inactive) | –
15 | COc1cc(CC(C)NC(C)=O)cc(OC)c1 (stereo not given) | > 100 µM (inactive) | – | > 100 µM (inactive) | – | > 100 µM (inactive) | > 100 µM (inactive) | > 100 µM (inactive) | > 100 µM (inactive) | > 100 µM (inactive) | > 100 µM (inactive) | > 100 µM | > 100 µM (inactive) | 3.04 µM (inactive) | > 100 µM (inactive) | > 100 µM (inactive) | > 100 µM (inactive) | > 100 µM (inactive) | > 100 µM (inactive) | > 100 µM (inactive) | > 100 µM (inactive)
16 | NC(Cc1ccc(CP(=O)(O)O)cc1)C(=O)O (stereo not given) | > 100 µM (inactive) | > 100 µM (inactive) | > 100 µM (inactive) | > 100 µM (inactive) | > 100 µM (inactive) | > 100 µM (inactive) | > 100 µM (inactive) | > 100 µM (inactive) | > 100 µM (inactive) | > 100 µM (inactive) | > 100 µM | > 100 µM (inactive) | > 100 µM (inactive) | > 100 µM (inactive) | > 100 µM (inactive) | > 100 µM (inactive) | > 100 µM (inactive) | > 100 µM (inactive) | > 100 µM (inactive) | –
